Results on six compounds are retold here after patent US20100168037A1 (priority 2002, published 2010).

Like-named read-outs stand apart in the source and are kept apart here. Where a SMILES comes first, the peptide text is derived from it. [ ]: non-standard residue; d: D form.

A word on the Kd: it is the free concentration of one partner at which half of the binding sites on the other are occupied at equilibrium, for simple one-to-one binding.

For one data set, the target named is RCA60 (Ricinus communis, UniProt P02879). The class given is binding.
The target of a further data set is BoNT/B neurotoxin (Clostridium botulinum, UniProt P10844). It is filed as binding.
Data set [1] addresses T1, ConA (Canavalia ensiformis, Jack Bean Lectin) (Canavalia ensiformis, UniProt P02866).
T1 construct: purchased EY Laboratories (San Mateo, Calif.)
Nature of the data set: Bead library screen, binding of AP-ConA. As to conditions: peptide on TentaGel bead; AP / NBT-BCIP detection.

For the next data set, the target named is BoNT/B (Clostridium botulinum, UniProt P10844). The class given is binding.
The target in another data set is BoNT/A (Clostridium botulinum, UniProt P0DPI0). It is filed as binding.
The target of the next data set is BotB complex (Clostridium botulinum, UniProt P10844). The class given is binding.
For data set [2] the following is noted: mouse, in vivo.

BoNT/B neurotoxin, sequence (P10844 whole entry, looked up): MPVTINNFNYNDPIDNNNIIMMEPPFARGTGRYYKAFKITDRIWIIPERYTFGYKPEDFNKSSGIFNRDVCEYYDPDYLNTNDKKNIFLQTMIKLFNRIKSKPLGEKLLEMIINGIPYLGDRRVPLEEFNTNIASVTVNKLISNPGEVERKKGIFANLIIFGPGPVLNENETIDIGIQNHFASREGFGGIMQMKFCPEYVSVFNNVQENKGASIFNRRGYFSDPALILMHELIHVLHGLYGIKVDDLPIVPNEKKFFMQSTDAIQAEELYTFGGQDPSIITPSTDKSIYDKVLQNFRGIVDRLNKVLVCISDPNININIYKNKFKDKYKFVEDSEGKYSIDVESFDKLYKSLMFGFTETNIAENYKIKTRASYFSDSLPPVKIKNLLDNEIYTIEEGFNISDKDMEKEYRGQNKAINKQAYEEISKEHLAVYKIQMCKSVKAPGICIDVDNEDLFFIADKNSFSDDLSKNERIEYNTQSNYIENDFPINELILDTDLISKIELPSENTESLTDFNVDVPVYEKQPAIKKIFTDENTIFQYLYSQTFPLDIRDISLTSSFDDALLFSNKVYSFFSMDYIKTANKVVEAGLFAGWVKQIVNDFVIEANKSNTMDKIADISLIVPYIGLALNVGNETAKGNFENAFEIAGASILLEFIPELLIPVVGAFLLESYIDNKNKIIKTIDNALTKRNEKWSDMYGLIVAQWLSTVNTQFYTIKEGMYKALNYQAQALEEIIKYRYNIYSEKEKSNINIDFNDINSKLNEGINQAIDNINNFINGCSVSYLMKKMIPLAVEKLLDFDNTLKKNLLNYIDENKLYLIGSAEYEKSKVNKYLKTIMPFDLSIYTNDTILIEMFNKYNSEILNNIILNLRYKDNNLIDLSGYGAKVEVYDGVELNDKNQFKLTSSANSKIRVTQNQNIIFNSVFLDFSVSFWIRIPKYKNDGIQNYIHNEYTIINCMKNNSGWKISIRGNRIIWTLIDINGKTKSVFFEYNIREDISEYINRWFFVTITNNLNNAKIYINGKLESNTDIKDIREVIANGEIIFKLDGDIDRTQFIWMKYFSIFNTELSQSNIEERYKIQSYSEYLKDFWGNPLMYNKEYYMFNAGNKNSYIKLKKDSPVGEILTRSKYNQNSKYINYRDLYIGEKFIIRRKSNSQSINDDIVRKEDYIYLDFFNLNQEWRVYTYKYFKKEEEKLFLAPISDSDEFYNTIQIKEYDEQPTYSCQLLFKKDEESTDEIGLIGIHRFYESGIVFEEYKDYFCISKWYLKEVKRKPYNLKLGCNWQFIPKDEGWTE
BoNT/B, sequence (P10844 whole entry, looked up): as above
BotB complex, sequence (P10844 2-1291 limits assumed, one chain of several): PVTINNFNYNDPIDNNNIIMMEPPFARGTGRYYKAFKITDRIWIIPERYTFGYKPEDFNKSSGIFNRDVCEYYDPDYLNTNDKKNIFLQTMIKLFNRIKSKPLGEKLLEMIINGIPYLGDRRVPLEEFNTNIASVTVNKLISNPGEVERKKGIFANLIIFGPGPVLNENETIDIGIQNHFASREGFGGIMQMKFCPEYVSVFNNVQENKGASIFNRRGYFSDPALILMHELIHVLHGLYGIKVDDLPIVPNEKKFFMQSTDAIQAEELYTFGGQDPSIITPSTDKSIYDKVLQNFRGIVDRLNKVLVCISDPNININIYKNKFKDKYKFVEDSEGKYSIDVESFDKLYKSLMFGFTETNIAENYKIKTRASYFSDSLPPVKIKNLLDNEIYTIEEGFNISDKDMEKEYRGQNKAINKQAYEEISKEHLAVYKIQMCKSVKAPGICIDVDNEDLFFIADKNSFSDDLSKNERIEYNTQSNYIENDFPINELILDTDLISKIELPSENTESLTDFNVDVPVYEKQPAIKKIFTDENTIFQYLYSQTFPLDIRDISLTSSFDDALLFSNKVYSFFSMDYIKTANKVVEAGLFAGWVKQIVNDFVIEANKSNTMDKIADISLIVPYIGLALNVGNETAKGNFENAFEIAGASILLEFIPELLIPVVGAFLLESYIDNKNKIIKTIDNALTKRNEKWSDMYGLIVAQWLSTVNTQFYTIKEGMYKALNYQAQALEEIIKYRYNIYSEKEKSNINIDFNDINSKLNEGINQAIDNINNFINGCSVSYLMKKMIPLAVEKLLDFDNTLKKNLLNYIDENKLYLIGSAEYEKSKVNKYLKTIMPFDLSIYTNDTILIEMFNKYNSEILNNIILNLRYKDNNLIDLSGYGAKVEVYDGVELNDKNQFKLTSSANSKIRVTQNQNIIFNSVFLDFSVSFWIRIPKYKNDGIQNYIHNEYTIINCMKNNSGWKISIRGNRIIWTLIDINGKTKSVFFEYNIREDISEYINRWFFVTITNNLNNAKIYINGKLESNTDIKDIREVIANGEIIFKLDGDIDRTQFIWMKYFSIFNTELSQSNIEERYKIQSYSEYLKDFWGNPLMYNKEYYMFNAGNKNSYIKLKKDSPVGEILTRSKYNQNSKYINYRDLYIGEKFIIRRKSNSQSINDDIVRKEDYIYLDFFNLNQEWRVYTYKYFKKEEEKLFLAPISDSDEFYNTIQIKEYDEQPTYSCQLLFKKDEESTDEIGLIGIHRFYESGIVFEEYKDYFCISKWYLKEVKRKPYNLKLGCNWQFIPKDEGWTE

As for `NCCCC[C@@H](NC(=O)[C@@H](CCCCN)NC(=O)[C@@H](CCCCN)NC(=O)[C@@H](Cc1ccccc1)NC(=O)[C@@H](Cc1ccccc1)NC(=O)[C@@H](Cc1ccc(O)cc1)NC(=O)[C@@H](Cc1ccccc1)NC(=O)CN)C(=O)O` [GFYFF] (H-G[dF][dY][dF][dF][dK][dK][dK]-OH; C-terminus assumed), the “Saturation Concentration” value at RCA60 was 100 nM. For the same compound, the “binding of BoNT/B to D-peptide bead (positive bead sequenced)” value (“binding of BoNT/B to D-peptide bead” for short) at BoNT/B neurotoxin is reported as “binding”. The “binding of ConA to D-peptide bead (positive bead sequenced)” value in data set [1] is “binding”.
For `C[C@@H](N)C(=O)N[C@H](Cc1ccccc1)C(=O)N[C@H](Cc1ccc(O)cc1)C(=O)N[C@H](C)C(=O)N[C@H](Cc1ccc(O)cc1)C(=O)N[C@H](CCCCN)C(=O)N[C@H](CCCCN)C(=O)N[C@H](CCCCN)C(=O)O` [AFYAY] (H-[dA][dF][dY][dA][dY][dK][dK][dK]-OH; C-terminus assumed), the “Saturation Concentration” value at RCA60 is on record as 100 nM.
Turning to `C[C@@H](NC(=O)CN)C(=O)N[C@H](Cc1ccccc1)C(=O)N[C@H](Cc1ccccc1)C(=O)N[C@H](Cc1c[nH]c2ccccc12)C(=O)N[C@H](CCCCN)C(=O)N[C@H](CCCCN)C(=O)N[C@H](CCCCN)C(=O)O` [GAFFW] (H-G[dA][dF][dF][dW][dK][dK][dK]-OH; C-terminus assumed), the “binding of BoNT/B in the microplate binding assay” value on BoNT/B is on record as “bound”. For the same compound, the “binding of BoNT/A in the microplate binding assay” value at BoNT/A was “bound”. The “binding of BoNT/B to D-peptide bead” value on BoNT/B neurotoxin is “identified”.
Regarding `NCCCC[C@@H](NC(=O)[C@@H](CCCCN)NC(=O)[C@@H](CCCCN)NC(=O)[C@@H](Cc1ccc(O)cc1)NC(=O)[C@@H](Cc1ccccc1)NC(=O)[C@@H](Cc1ccccc1)NC(=O)[C@@H](Cc1ccccc1)NC(=O)CN)C(=O)O` [GFFFY] (H-G[dF][dF][dF][dY][dK][dK][dK]-OH; C-terminus assumed), the “Saturation Concentration” value at BotB complex is 2.3 nM; at BoNT/B, 3 to 4 nM; at BoNT/A it was 3 to 4 nM. For the same compound, on BotB complex, the “binding of BotB complex in the microplate binding assay” value is “bound”. In addition, the Kd on BotB complex (read-out: Estimated Kd) is 0.022 nM; on BoNT/B (read-out: Estimated Kd) it was 1 to 2 nM; on BoNT/A (read-out: Estimated Kd), 1 to 2 nM. Also, the “binding of BoNT/B in the microplate binding assay” value on BoNT/B was “bound”. In addition, the “binding of BoNT/A in the microplate binding assay” value on BoNT/A is given as “bound”. Moreover, the “binding of BoNT/B to D-peptide bead” value on BoNT/B neurotoxin is given as “binding”.
For `NCCCC[C@@H](NC(=O)[C@@H](CCCCN)NC(=O)[C@@H](CCCCN)NC(=O)[C@@H](Cc1ccc(O)cc1)NC(=O)CNC(=O)[C@@H](Cc1c[nH]c2ccccc12)NC(=O)[C@@H](Cc1ccccc1)NC(=O)CN)C(=O)O` [GFWGY] (H-G[dF][dW]G[dY][dK][dK][dK]-OH), the signs of toxicity entry in data set [2] (ip) and in data set [2] (iv) was “no apparent toxicity” throughout.
For the compound `NCCCC[C@@H](NC(=O)[C@@H](CCCCN)NC(=O)[C@@H](CCCCN)NC(=O)[C@@H](Cc1ccc(O)cc1)NC(=O)[C@@H](Cc1c[nH]c2ccccc12)NC(=O)CNC(=O)[C@@H](Cc1ccccc1)NC(=O)CN)C(=O)O` [GFGWY] (H-G[dF]G[dW][dY][dK][dK][dK]-OH; C-terminus assumed), the “binding of BoNT/B in the microplate binding assay” value on BoNT/B was “bound”. Also, the “binding of BoNT/A in the microplate binding assay” value at BoNT/A is “bound”. Moreover, on BoNT/B neurotoxin, the “binding of BoNT/B to D-peptide bead” value is given as “identified”.
